# Tested on: Matricaria recutita, Diplotaxis tenuifolia, Agrostis spp., Poa annua, or Arabidopsis thaliana
# Assay: Plant phenotyping assay (herbicidal phenotypes, 96-well plates); further: key: '+++' is highly active; '++' is moderately active; '+' is weakly active; '−' is inactive
# Type: in vivo
# Settings: visual score of herbicidal phenotypes after seven days; 238, 475, 950, and 1900 g ai/ha (50-400 uM)
# Method: Seeds of Matricaria recutita, Diplotaxis tenuifolia, Agrostis spp., Poa annua, or Arabidopsis thaliana were sown into 96-well plates containing 200 μl of growth media [0.5× Murashige and Skoog (MS) basal media (Sigma-Aldrich), 2.5 mM 2-(N-morpholino) ethanesulfonic acid (MES—Sigma-Aldrich), 0.7 g/L Phytagar (Invitrogen); pH 5.7]. Three to five seeds were distributed per well. Plates were placed under fifteen hours of light at 23° C., 65% humidity in a controlled environment growth chamber. After approximately three days, test compounds and controls were mixed with acetone and emulsified with an equal volume of 3% methyl ester of rapeseed oil (Mero), and applied to plants at concentrations of 238, 475, 950, and 1900 g ai/ha (50-400 uM).
row,Structure (SMILES),Plant Activity
1,"COc1cnc(OC)n2nc(NS(=O)(=O)c3c(OC4CCN(CCOCCOCCOCCN5CCN(c6ccc7c(c6)C(=O)N(C6CCC(=O)NC6=O)C7=O)CC5)CC4)cccc3C(F)(F)F)nc12 (stereo not shown) [Compound 4-O, N-(5,8-Dimethoxy-[1,2,4]triazolo[1,5-c]pyrimidin-2-yl)-2-((1-(2-(2-(2-(2-(4-(2-(2,6-dioxopiperidin-3-yl)-1,3-dioxoisoindolin-5-yl)piperazin-1-yl)ethoxy)ethoxy)ethoxy)ethyl)piperidin-4-yl)oxy)-6-(trifluoromethyl)benzenesulfonamide]",−
2,"COc1cnc(OC)n2nc(NS(=O)(=O)c3c(OCCOCCOCCOCCCN4CCN(c5ccc6c(c5)C(=O)N(C5CCC(=O)NC5=O)C6=O)CC4)cccc3C(F)(F)F)nc12 (stereo not shown) [Compound 4-Q, N-(5,8-Dimethoxy-[1,2,4]triazolo[1,5-c]pyrimidin-2-yl)-2-(2-(2-(2-(3-(4-(2-(2,6-dioxopiperidin-3-yl)-1,3-dioxoisoindolin-5-yl)piperazin-1-yl)propoxy)ethoxy)ethoxy)ethoxy)-6-(trifluoromethyl)benzenesulfonamide]",++
3,"CS(=O)(=O)c1ccc(C(=O)C2C(=O)CCCC2=O)c(Cl)c1OCCOCCOCCOc1ccc2c(c1)C(=O)N(C1CCC(=O)NC1=O)C2=O (stereo not shown) [Compound 3, 5-[2-[2-[2-[2-chloro-3-(2,6-dioxocyclohexanecarbonyl)-6-methylsulfonyl-phenoxy]ethoxy]ethoxy]ethoxy]-2-(2,6-dioxo-3-piperidyl)isoindoline-1,3-dione]",++
4,"COc1cnc(OC)n2nc(NS(=O)(=O)c3c(OCCOCCOCCOCCOCCCN4CCN(c5ccc6c(c5)C(=O)N(C5CCC(=O)NC5=O)C6=O)CC4)cccc3C(F)(F)F)nc12 (stereo not shown) [Compound 4-R, N-(5,8-Dimethoxy-[1,2,4]triazolo[1,5-c]pyrimidin-2-yl)-2-((15-(4-(2-(2,6-dioxopiperidin-3-yl)-1,3-dioxoisoindolin-5-yl)piperazin-1-yl)-3,6,9,12-tetraoxapentadecyl)oxy)-6-(trifluoromethyl)benzenesulfonamide]",−
5,"O=C1CCC(N2C(=O)c3ccc(N4CCN(CCCC5CCN(CCOCCOc6cccc(C(=O)C7C(=O)CCCC7=O)c6Cl)CC5)CC4)cc3C2=O)C(=O)N1 (stereo not shown) [Compound 2-B, 5-(4-(3-(1-(2-(2-(2-Chloro-3-(2,6-dioxocyclohexane-1-carbonyl)phenoxy)ethoxy)ethyl)piperidin-4-yl)propyl)piperazin-1-yl)-2-(2,6-dioxopiperidin-3-yl)isoindoline-1,3-dione]",+
6,"CCOC(=O)[C@@H](C)Oc1ccc(Oc2ccc(OCCOCCOCCN3CCN(c4ccc5c(c4)C(=O)N(C4CCC(=O)NC4=O)C5=O)CC3)cn2)cc1 (stereo partly drawn) [Compound 6-A, Ethyl (2R)-2-(4-((5-(2-(2-(2-(4-(2-(2,6-dioxopiperidin-3-yl)-1,3-dioxoisoindolin-5-yl)piperazin-1-yl)ethoxy)ethoxy)ethoxy)pyridin-2-yl)oxy)phenoxy)propanoate]",+
7,"CCO/N=C(\CC)C1=C(O)CC(c2ccc(OC3CCN(CCOCCOCCOCCN4CCN(c5ccc6c(c5)C(=O)N(C5CCC(=O)NC5=O)C6=O)CC4)CC3)cc2)CC1=O (stereo not shown) [Compound 5-C, (E)-2-(2,6-Dioxopiperidin-3-yl)-5-(4-(2-(2-(2-(2-(4-((4′-(1-(ethoxyimino)propyl)-5′-hydroxy-3′-oxo-1′,2′,3′,6′-tetrahydro-[1,1′-biphenyl]-4-yl)oxy)piperidin-1-yl)ethoxy)ethoxy)ethoxy)ethyl)piperazin-1-yl)isoindoline-1,3-dione]",+
8,"COc1cnc(OC)n2nc(NS(=O)(=O)c3c(OCCOCCN4CC(OCCCN5CCN(c6ccc7c(c6)C(=O)N(C6CCC(=O)NC6=O)C7=O)CC5)C(F)(F)C4)cccc3C(F)(F)F)nc12 (stereo not shown) [Compound 4-S, N-(5,8-Dimethoxy-[1,2,4]triazolo[1,5-c]pyrimidin-2-yl)-2-(2-(2-(4-(3-(4-(2-(2,6-dioxopiperidin-3-yl)-1,3-dioxoisoindolin-5-yl)piperazin-1-yl)propoxy)-3,3-difluoropyrrolidin-1-yl)ethoxy)ethoxy)-6-(trifluoromethyl)benzenesulfonamide]",++
9,"COc1cnc(OC)n2nc(NS(=O)(=O)c3c(OCCN4CCC(CCCN5CCN(c6ccc7c(c6)C(=O)N(C6CCC(=O)NC6=O)C7=O)CC5)CC4)cccc3C(F)(F)F)nc12 (stereo not shown) [Compound 4-L, N-(5,8-Dimethoxy-[1,2,4]triazolo[1,5-c]pyrimidin-2-yl)-2-(2-(4-(3-(4-(2-(2,6-dioxopiperidin-3-yl)-1,3-dioxoisoindolin-5-yl)piperazin-1-yl)propyl)piperidin-1-yl)ethoxy)-6-(trifluoromethyl)benzenesulfonamide]",−
10,"O=C(COc1cccc2c1C(=O)N(C1CCC(=O)NC1=O)C2=O)NCCOCCOc1cccc(C(=O)C2C(=O)CCCC2=O)c1Cl (stereo not shown) [Compound 1-A, N-(2-(2-(2-Chloro-3-(2,6-dioxocyclohexane-1-carbonyl)phenoxy)ethoxy)ethyl)-2-((2-(2,6-dioxopiperidin-3-yl)-1,3-dioxoisoindolin-4-yl)oxy)acetamide]",+
11,"CCOC(=O)[C@@H](C)Oc1ccc(Oc2ccc(OCCOCCOCCOc3ccc4c(c3)C(=O)N(C3CCC(=O)NC3=O)C4=O)cn2)cc1 (stereo partly drawn) [Compound 6, Ethyl (2R)-2-(4-((5-(2-(2-(2-((2-(2,6-dioxopiperidin-3-yl)-1,3-dioxoisoindolin-5-yl)oxy)ethoxy)ethoxy)ethoxy)pyridin-2-yl)oxy)phenoxy)propanoate]",+
12,"COc1cnc(OC)n2nc(NS(=O)(=O)c3c(OCCOCCOCCN4CCC(CCCN5CCN(c6ccc7c(c6)C(=O)N(C6CCC(=O)NC6=O)C7=O)CC5)CC4)cccc3C(F)(F)F)nc12 (stereo not shown) [Compound 4-J, N-(5,8-Dimethoxy-[1,2,4]triazolo[1,5-c]pyrimidin-2-yl)-2-(2-(2-(2-(4-(3-(4-(2-(2,6-dioxopiperidin-3-yl)-1,3-dioxoisoindolin-5-yl)piperazin-1-yl)propyl)piperidin-1-yl)ethoxy)ethoxy)ethoxy)-6-(trifluoromethyl)benzenesulfonamide]",−
13,"O=C(COc1ccc(Oc2nc3ccc(F)cc3s2)cc1)NCCCOCCOCCOCCOc1ccc2c(c1)C(=O)N(C1CCC(=O)NC1=O)C2=O (stereo not shown) [Compound 8-B, N-(3-(2-(2-(2-((2-(2,6-Dioxopiperidin-3-yl)-1,3-dioxoisoindolin-5-yl)oxy)ethoxy)ethoxy)ethoxy)propyl)-2-(4-((6-fluorobenzo[d]thiazol-2-yl)oxy)phenoxy)acetamide]",+
14,"COc1cnc(OC)n2nc(NS(=O)(=O)c3c(OCCOCCOCCOCCOCCNc4cccc5c4C(=O)N(C4CCC(=O)NC4=O)C5=O)cccc3C(F)(F)F)nc12 (stereo not shown) [Compound 4-F, N-(5,8-Dimethoxy-[1,2,4]triazolo[1,5-c]pyrimidin-2-yl)-2-((14-((2-(2,6-dioxopiperidin-3-yl)-1,3-dioxoisoindolin-4-yl)amino)-3,6,9,12-tetraoxatetradecyl)oxy)-6-(trifluoromethyl)benzenesulfonamide]",+++
15,"CCO/N=C(\CC)C1=C(O)CC(c2ccc(OCCOCCOCCN3CCN(c4ccc5c(c4)C(=O)N(C4CCC(=O)NC4=O)C5=O)CC3)cc2)CC1=O (stereo not shown) [Compound 5-B, (E)-2-(2,6-Dioxopiperidin-3-yl)-5-(4-(2-(2-(2-((4′-(1-(ethoxyimino)propyl)-5′-hydroxy-3′-oxo-1′,2′,3′,6′-tetrahydro-[1,1′-biphenyl]-4-yl)oxy)ethoxy)ethoxy)ethyl)piperazin-1-yl)isoindoline-1,3-dione]",+
16,"COc1cnc(OC)n2nc(NS(=O)(=O)c3c(OCCOCCOCCOCCNC(=O)COc4cccc5c4C(=O)N(C4CCC(=O)NC4=O)C5=O)cccc3C(F)(F)F)nc12 (stereo not shown) [Compound 4-G, N-(2-(2-(2-(2-(2-(N-(5,8-Dimethoxy-[1,2,4]triazolo[1,5-c]pyrimidin-2-yl)sulfamoyl)-3-(trifluoromethyl)phenoxy)ethoxy)ethoxy)ethoxy)ethyl)-2-((2-(2,6-dioxopiperidin-3-yl)-1,3-dioxoisoindolin-4-yl)oxy)acetamide]",++
17,"COc1cnc(OC)n2nc(NS(=O)(=O)c3c(OCCOCCOCCOCCOc4ccc5c(c4)C(=O)N(C4CCC(=O)NC4=O)C5=O)cccc3C(F)(F)F)nc12 (stereo not shown) [Compound 4-D, N-(5,8-Dimethoxy-[1,2,4]triazolo[1,5-c]pyrimidin-2-yl)-2-(2-(2-(2-(2-((2-(2,6-dioxopiperidin-3-yl)-1,3-dioxoisoindolin-5-yl)oxy)ethoxy)ethoxy)ethoxy)ethoxy)-6-(trifluoromethyl)benzenesulfonamide]",+++
18,"O=C1CCC(N2C(=O)c3ccc(N4CCN(CCOCCOCCOCCN5CCC(Oc6cccc(C(=O)C7C(=O)CCCC7=O)c6Cl)CC5)CC4)cc3C2=O)C(=O)N1 (stereo not shown) [Compound 2-A, 5-[4-[2-[2-[2-[2-[4-[2-Chloro-3-(2,6-dioxocyclohexanecarbonyl)phenoxy]-1-piperidyl]ethoxy]ethoxy]ethoxy]ethyl]piperazin-1-yl]-2-(2,6-dioxo-3-piperidyl)isoindoline-1,3-dione]",+
19,"O=C(COc1ccc(Oc2cncc(C(F)(F)F)c2)cc1)NCCCOCCOCCOc1ccc2c(c1)C(=O)N(C1CCC(=O)NC1=O)C2=O (stereo not shown) [Compound 7-A, N-(3-(2-(2-((2-(2,6-Cioxopiperidin-3-yl)-1,3-dioxoisoindolin-5-yl)oxy)ethoxy)ethoxy)propyl)-2-(4-((5-(trifluoromethyl)pyridin-3-yl)oxy)phenoxy)acetamide]",−
